According to ChEMBL document CHEMBL1201862, “PubChem BioAssay data set” (2004):
Calls of active or inactive are those of the source.

How the values were obtained:
Streptococcus = assay: GAS UMAA2166 growth inhibition – luminescence, BacTiterGlo, counter-screen for streptokinase expression inhibitor project, dose response (AID 1915); format: functional, organism-based;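 also: potency for reduction of bacterial viability or growth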
[1] = tested on: Streptococcus sp. 'group A'; assay: Streptococcus pyogenes SK(-)GAS viability under kanamycin – luminescence, BacTiterGlo, confirmation, counter-screen for streptokinase expression inhibitor project, dose response (AID 1900); format: functional, organism-based
Estrogen receptor = biological target: T1, Estrogen receptor (Homo sapiens, UniProt P03372); assay: ERα coactivator recruitment enhancers – biochemical, TR-FRET, ERα LBD, dose response (AID 737)
T1 sequence (P03372 whole entry): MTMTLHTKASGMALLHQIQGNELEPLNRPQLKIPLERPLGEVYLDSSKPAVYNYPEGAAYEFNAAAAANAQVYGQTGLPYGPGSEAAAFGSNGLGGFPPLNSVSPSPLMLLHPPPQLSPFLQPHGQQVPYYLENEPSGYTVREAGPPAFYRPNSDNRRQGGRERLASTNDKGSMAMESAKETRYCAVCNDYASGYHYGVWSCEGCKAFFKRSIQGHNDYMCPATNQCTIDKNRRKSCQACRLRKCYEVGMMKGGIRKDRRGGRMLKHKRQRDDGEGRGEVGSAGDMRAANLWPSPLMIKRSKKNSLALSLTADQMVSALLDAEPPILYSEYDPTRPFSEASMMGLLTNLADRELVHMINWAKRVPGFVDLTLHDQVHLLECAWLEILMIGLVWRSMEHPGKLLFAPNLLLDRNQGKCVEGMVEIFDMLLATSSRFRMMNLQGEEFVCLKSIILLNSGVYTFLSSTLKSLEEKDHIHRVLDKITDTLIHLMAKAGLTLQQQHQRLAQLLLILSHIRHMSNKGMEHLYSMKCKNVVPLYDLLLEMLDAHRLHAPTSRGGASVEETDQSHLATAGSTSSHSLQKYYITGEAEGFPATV

Streptokinase A = biological target: T2, Streptokinase A (Streptococcus pyogenes serotype M1, UniProt P10520); assay: viability-normalized secreted streptokinase activity reduction – plasminogen activation absorbance, OD405, dose response (AID 1914); format: functional, Streptococcus pyogenes M1 GAS;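 also: secreted streptokinase activity via plasminogen activation per viability signal from cell pellet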
T2 sequence (P10520 whole entry): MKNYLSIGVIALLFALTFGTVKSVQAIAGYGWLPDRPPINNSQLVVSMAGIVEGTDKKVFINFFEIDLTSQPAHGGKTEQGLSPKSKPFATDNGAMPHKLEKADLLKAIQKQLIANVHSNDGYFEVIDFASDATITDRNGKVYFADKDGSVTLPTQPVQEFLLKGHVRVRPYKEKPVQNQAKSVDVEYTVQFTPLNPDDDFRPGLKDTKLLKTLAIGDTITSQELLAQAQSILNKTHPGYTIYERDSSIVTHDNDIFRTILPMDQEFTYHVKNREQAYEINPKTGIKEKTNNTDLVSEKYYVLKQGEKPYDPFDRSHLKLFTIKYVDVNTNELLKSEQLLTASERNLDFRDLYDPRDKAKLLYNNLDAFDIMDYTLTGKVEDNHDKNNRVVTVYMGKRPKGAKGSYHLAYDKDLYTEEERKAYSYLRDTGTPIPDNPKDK

NS3 = NS3 (Hepatitis C virus, UniProt A3EZJ3); assay: PubChem AID 2173; design: species or system Hepacivirus hominis
Sequence of NS3 (A3EZJ3 whole entry): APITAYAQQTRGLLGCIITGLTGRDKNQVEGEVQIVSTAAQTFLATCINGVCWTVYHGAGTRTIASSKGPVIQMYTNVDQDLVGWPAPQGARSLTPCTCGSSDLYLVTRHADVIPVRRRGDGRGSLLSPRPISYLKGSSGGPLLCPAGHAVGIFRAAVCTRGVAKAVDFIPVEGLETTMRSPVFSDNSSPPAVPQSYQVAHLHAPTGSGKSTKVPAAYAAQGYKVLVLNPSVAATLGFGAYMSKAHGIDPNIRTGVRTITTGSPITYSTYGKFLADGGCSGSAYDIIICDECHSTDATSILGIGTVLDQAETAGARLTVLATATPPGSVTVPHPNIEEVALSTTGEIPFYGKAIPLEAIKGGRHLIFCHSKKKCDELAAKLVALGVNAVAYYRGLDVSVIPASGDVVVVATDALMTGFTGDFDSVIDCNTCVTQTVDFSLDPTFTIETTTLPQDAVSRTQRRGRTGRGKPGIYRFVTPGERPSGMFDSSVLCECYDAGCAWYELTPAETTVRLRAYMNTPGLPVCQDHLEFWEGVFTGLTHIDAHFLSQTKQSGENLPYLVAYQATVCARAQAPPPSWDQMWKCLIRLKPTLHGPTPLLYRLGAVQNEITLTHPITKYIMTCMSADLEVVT

[2] = biological target: T3, Neuropeptide Y receptor type 1 (Homo sapiens, UniProt P25929); format: functional;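 also: HEK293 cells with a CNG channel challenged with NPY then isoproterenol; potency as antagonist that reverses NPY suppression of cAMP signal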
T3 sequence (P25929 whole entry): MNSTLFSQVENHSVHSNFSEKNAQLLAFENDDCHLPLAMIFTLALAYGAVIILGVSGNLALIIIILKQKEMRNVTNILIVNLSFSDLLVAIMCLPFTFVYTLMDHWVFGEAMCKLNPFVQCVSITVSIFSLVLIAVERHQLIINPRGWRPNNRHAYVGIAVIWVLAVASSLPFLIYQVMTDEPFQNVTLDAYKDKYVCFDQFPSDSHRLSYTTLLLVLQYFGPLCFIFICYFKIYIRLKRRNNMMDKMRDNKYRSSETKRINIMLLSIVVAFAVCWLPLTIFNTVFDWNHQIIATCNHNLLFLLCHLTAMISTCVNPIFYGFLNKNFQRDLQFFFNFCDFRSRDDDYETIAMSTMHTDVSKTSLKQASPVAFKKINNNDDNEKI

[3] = biological target: T4, Neuropeptide Y receptor type 2 (Homo sapiens, UniProt P49146); format: functional, cell-based;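 also: HEK293 cells expressing the receptor and a CNG channel; stimulus was NPY near EC95 followed by isoproterenol to raise cAMP; antagonist potency measured as restoring cAMP signal that NPY suppresses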
T4 sequence (P49146 whole entry): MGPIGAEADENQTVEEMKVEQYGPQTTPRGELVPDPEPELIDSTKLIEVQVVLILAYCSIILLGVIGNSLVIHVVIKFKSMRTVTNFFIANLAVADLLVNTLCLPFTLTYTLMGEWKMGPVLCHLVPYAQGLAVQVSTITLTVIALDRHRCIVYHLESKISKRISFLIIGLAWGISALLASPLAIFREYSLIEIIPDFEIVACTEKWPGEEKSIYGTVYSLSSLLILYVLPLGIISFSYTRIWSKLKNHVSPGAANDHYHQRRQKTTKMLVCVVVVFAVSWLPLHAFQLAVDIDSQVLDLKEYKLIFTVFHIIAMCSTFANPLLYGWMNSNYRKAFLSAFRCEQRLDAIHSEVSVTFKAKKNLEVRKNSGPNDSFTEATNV

Bcl-2-like protein 10 = Bcl-2-like protein 10 (Homo sapiens, UniProt Q9HD36); assay: Concentration-response of Bcl-B inhibitors by biochemical FP with TR3 (AID 1243); format: functional
Sequence of Bcl-2-like protein 10 (Q9HD36 whole entry): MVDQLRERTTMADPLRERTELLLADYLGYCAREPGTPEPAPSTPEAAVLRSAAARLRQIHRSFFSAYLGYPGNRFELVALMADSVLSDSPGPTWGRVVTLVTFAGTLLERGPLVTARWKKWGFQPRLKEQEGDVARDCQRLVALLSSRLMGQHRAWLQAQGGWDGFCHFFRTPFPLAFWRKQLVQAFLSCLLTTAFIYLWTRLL

CC(Oc1ccc(Cl)cc1Cl)C(=O)Nc1ccc2oc(-c3ccncc3)nc2c1 (stereo not drawn)
EC50 (Streptococcus): 9.54 µM (active)
EC50 [1]: 8.75 µM (active)
EC50 (Estrogen receptor): 11.4 µM (active)
EC50 (Streptokinase A): > 150 µM (not active)

CCC(C(=O)O)n1nnc(-c2ccc(-c3ccc(OC)cc3)cc2)n1 (stereo not drawn)
IC50 (NS3): 8.42 µM (active)

O=C(C1CCN(Cc2ccc(Cl)cc2)CC1)N1CCN(C(c2ccccc2)c2ccccc2)CC1
IC50 [2]: > 35 µM (not active)
IC50 [3]: > 35 µM (not active)

Cc1ccc(C)n1-c1ccc(C(=O)O)c(Cl)c1
EC50 (Bcl-2-like protein 10): 9.96 µM (active)
